Columns and labels:
[1] = excess molar enthalpy (molar enthalpy of mixing); xn = mol fraction of the nth substance listed; settings: 308.15 K, 101 kPa, Liquid, 2-drop calorimeter (CSC 4600_
[2] = xn = mol fraction of the nth substance listed; settings: 101 kPa, Liquid; for mass density: Vibrating tube method

Cc1cccnc1 [3-methylpyridine] + C1CCOCC1
[1]
Settings	excess molar enthalpy [kJ/mol]
x2 = 0.0532	0.0247
x2 = 0.1118	0.0492
x2 = 0.1802	0.0758
x2 = 0.2238	0.0899
x2 = 0.2732	0.104
x2 = 0.3311	0.116
x2 = 0.3913	0.125
x2 = 0.4461	0.126
x2 = 0.4803	0.127
x2 = 0.5365	0.125
x2 = 0.5868	0.123
x2 = 0.6344	0.116
x2 = 0.6802	0.104
x2 = 0.7355	0.0924
x2 = 0.7832	0.0769
x2 = 0.8326	0.0625
x2 = 0.8914	0.0403
x2 = 0.9336	0.0254

[2]
Settings	mass density, 298.15 K [kg/m3]	mass density, 303.15 K [kg/m3]	mass density, 308.15 K [kg/m3]	speed of sound, 298.15 K [m/s]	speed of sound, 303.15 K [m/s]	speed of sound, 308.15 K [m/s]
x2 = 0	952.002	947.449	942.831	1424	1404	1384
x2 = 0.0562	948.099	943.521	938.854	1415.9	1395.6	1375.6
x2 = 0.0848	946.113	941.519	936.827	1411.8	1391.4	1371.4
x2 = 0.1357	942.576	937.954	933.219	1404.5	1383.9	1363.8
x2 = 0.1826	939.306	934.651	929.891	1397.8	1377.1	1356.8
x2 = 0.2461	934.857	930.166	925.361	1388.8	1367.8	1347.2
x2 = 0.2833	932.236	927.522	922.691	1383.3	1362.3	1341.5
x2 = 0.3345	928.61	923.861	919.004	1375.8	1354.5	1333.6
x2 = 0.3813	925.271	920.499	915.608	1368.6	1347.3	1326.2
x2 = 0.4262	922.049	917.247	912.336	1361.8	1340.3	1319.2
x2 = 0.4827	917.964	913.129	908.186	1353	1331.2	1310.1
x2 = 0.5378	913.951	909.085	904.106	1344.3	1322.4	1301.2
x2 = 0.5924	909.933	905.038	900.027	1335.5	1313.3	1292.3
x2 = 0.6382	906.545	901.626	896.591	1328	1305.7	1284.7
x2 = 0.6982	902.068	897.114	892.051	1318.1	1295.6	1274.7
x2 = 0.7568	897.664	892.682	887.584	1308.6	1285.8	1264.9
x2 = 0.8138	893.349	888.335	883.218	1299.2	1276.4	1255.4
x2 = 0.8825	888.124	883.068	877.926	1288.2	1265.1	1243.9
x2 = 0.9321	884.334	879.246	874.092	1280.3	1257.2	1235.7

Cc1ccncc1 [4-methylpyridine] + C1CCOCC1
[1]
Settings	excess molar enthalpy [kJ/mol]
x2 = 0.0442	0.0124
x2 = 0.1216	0.0426
x2 = 0.1982	0.0761
x2 = 0.2416	0.0975
x2 = 0.2882	0.118
x2 = 0.3401	0.135
x2 = 0.3876	0.153
x2 = 0.4371	0.165
x2 = 0.4834	0.174
x2 = 0.5256	0.175
x2 = 0.5934	0.173
x2 = 0.6433	0.163
x2 = 0.6925	0.15
x2 = 0.7367	0.132
x2 = 0.7952	0.107
x2 = 0.8262	0.0948
x2 = 0.8842	0.0626
x2 = 0.9406	0.0325

[2]
Settings	mass density, 298.15 K [kg/m3]	mass density, 303.15 K [kg/m3]	mass density, 308.15 K [kg/m3]	speed of sound, 298.15 K [m/s]	speed of sound, 303.15 K [m/s]	speed of sound, 308.15 K [m/s]
x2 = 0	950.179	945.413	940.821	1431.5	1410.7	1389.9
x2 = 0.0521	946.678	941.884	936.955	1422.7	1402.2	1380.6
x2 = 0.0832	944.577	939.773	935.004	1417.5	1397.2	1376.2
x2 = 0.1426	940.548	935.733	931.541	1407.8	1387.6	1368.4
x2 = 0.1882	937.434	932.615	928.307	1400.5	1380.3	1360.8
x2 = 0.2536	932.939	928.121	923.922	1390.1	1369.7	1350.5
x2 = 0.2902	930.406	925.591	921.331	1384.3	1363.8	1344.4
x2 = 0.3415	926.841	922.019	917.744	1376.1	1355.3	1336
x2 = 0.3782	924.275	919.451	914.432	1370.3	1349.3	1328
x2 = 0.4323	920.471	915.637	911.254	1361.6	1340.5	1320.8
x2 = 0.4913	916.295	911.443	907.207	1352.1	1330.7	1311.3
x2 = 0.5437	912.559	907.692	903.227	1343.6	1322	1302.1
x2 = 0.5991	908.587	903.687	899.247	1334.5	1312.8	1292.8
x2 = 0.6427	905.441	900.515	895.885	1327.3	1305.5	1285.2
x2 = 0.7015	901.173	896.211	891.453	1317.7	1295.7	1275
x2 = 0.7822	895.277	890.253	887.03	1304.4	1282.3	1264.5
x2 = 0.8263	892.032	886.976	882.795	1297.2	1275	1255.2
x2 = 0.8846	887.726	882.631	877.665	1287.9	1265.5	1243.9
x2 = 0.9435	883.352	878.225	873.901	1278.6	1255.9	1235.3
